From patent publication US8703811B2, “Small molecule inhibitors of Plasmodium falciparum dihydroorotate dehydrogenase” (Genzyme Corporation, priority 2008, dated 2014) come the findings set out here.

For data set [1], the system named is Normal Human Dermal Fibroblasts. The experiment in a line: Normal Human Dermal Fibroblast Toxicity Screen. The data set is classed as cell-based. In short, it runs like this: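 Fibroblasts seeded at 0.25 to 0.3×10^5 cells/mL, allowed 24 h at 37° C./5% CO2, then exposed to compounds for 96 hours. Viability read as Alamar Blue fluorescence after 3 h, with a T=0 plate, Tween 20 as positive control and DMSO as negative control.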

The target in another data set is scDHODH (Saccharomyces cerevisiae (strain ATCC 204508 / S288c) (Baker's yeast), UniProt P28272). The experiment in a line: DCIP assay with fumarate, scDHODH. Type of data set: biochemical. The following applies: 115 μM fumarate in lieu of CoQD.
Sequence of scDHODH (P28272 whole entry): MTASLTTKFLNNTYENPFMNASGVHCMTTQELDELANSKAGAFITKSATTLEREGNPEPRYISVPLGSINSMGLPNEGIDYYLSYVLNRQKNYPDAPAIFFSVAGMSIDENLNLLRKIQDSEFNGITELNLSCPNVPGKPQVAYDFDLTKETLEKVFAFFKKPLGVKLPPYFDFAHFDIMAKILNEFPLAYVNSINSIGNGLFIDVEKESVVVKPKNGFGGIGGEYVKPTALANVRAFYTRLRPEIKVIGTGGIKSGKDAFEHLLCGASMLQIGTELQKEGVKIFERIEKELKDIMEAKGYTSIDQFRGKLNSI
Another data set has as its system P. falciparum HB3. The experiment in a line: Inhibition of in vitro P. falciparum culture, [3H]-hypoxanthine uptake, HB3. Type of data set: cell-based. The following applies: Plasmodium falciparum, HB3, Erythrocyte; [3H]-hypoxanthine uptake by parasite infected erythrocytes; read-out: HB3 IC50. In short, it runs like this:
(§1)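 Parasite growth inhibition measured as relative reduction of [3H]-hypoxanthine uptake in in vitro cultures. Values from non-linear regression fit, using relative growth velocity in place of product-formation rate.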

In a further data set the target is pfDHODH (Plasmodium falciparum (isolate 3D7), UniProt Q08210). The experiment in a line: pfDHODH activity with FeCy as electron acceptor. The note with it: read-out: % Inhibition of Product Formation Rate with 50 μM Inhibitor, FeCy.
Sequence of pfDHODH (Q08210 159-565 limits assumed): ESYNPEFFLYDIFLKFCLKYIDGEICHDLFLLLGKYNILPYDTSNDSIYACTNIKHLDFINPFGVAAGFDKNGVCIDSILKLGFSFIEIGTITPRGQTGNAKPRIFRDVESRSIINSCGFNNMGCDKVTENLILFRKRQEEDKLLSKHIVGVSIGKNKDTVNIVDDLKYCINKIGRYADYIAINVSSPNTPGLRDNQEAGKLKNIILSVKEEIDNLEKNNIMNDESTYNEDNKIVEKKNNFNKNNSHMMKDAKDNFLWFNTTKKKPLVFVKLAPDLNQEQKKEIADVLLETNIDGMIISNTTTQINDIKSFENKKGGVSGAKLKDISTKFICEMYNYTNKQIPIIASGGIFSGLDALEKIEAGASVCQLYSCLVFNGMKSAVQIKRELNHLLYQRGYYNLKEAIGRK
In another data set the test system is P. falciparum D10. The data set can be described thus: Inhibition of in vitro P. falciparum culture, [3H]-hypoxanthine uptake, D10. The note with it: Plasmodium falciparum, D10, Erythrocyte; [3H]-hypoxanthine uptake by parasite infected erythrocytes; read-out: D10 IC50. The data set is classed as cell-based. In short, it runs like this: as §1
The target in a further data set is pbDHODH (Plasmodium berghei, UniProt A0A509AEH5). The data set can be described thus: DCIP assay, pbDHODH. Type of data set: biochemical, P. berghei. The note with it: 200 μM L-DHO, 18 μM CoQD, 100 μM DCIP, 20 nM enzyme. The text has this: (§2) Type 2 DHODH activity was monitored with either the direct assay measuring the formation of orotate or via a chromogen reduction assay using DCIP. Although the extinction coefficient and absorption wavelength are preferable for the chromogen reduction assay, the inorganic electron acceptor DCIP can be utilized by DHODH as the final electron acceptor in lieu of CoQn when the endogenous substrate is at a low concentration. As such, the direct assay was used to measure the binding affinity of pfDHODH to CoQD and L-DHO. The enzymatic reaction was performed by varying the L-DHO concentration (1-400 μM) or CoQD concentration (1-200 μM) while keeping the other substrate constant and in excess. The formation of orotate was measured continuously at 296 nm (ε296=4.3 mM^−1 cm^−1). Inhibition of DHODH by small molecules was evaluated using the chromogen based assay with a final substrate concentration of 200 μM L-DHO, 18 μM CoQD, and 100 μM DCIP, unless otherwise noted. The reduction of DCIP was monitored at 600 nm (ε600=18.8 mM^−1 cm^−1).
Sequence of pbDHODH (A0A509AEH5 1-517): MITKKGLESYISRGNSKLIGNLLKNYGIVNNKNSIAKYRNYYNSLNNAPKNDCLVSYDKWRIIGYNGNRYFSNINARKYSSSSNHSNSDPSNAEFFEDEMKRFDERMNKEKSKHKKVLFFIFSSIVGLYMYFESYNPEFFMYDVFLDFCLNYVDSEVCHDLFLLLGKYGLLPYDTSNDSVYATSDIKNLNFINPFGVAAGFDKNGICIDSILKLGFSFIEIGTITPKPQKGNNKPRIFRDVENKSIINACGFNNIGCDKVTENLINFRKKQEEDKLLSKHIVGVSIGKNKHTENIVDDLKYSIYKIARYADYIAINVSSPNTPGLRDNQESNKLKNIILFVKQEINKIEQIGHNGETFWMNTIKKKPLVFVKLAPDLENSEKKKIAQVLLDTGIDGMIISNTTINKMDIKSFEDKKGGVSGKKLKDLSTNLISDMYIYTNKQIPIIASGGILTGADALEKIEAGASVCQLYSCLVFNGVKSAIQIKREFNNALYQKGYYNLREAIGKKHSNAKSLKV
(§3) Substrate specificity and enzyme inhibition data was analyzed with GraphPad Prism Version 4 for Windows (GraphPad Software). Kinetic constants were calculated by non-linear regression fitting of the data to the Michaelis-Menten equation [36]. IC50 values were determined by non-linear regression fitting of the data to Equation 1: […]

The next data set concerns the target pvDHODH (Plasmodium vivax, UniProt A5K1N1). The data set can be described thus: DCIP assay, pvDHODH. The data set is classed as biochemical, P. vivax. The note with it: 200 μM L-DHO, 18 μM CoQD, 100 μM DCIP, 20 nM enzyme.
Text: as §2, §3

Data set [2] relates to P. falciparum D10-scDHODH. The data set can be described thus: Inhibition of transgenic D10-scDHODH parasites, [3H]-hypoxanthine uptake. The data set is classed as cell-based. In short, it runs like this: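 P. falciparum D10 transfected with full-length scDHODH (no GFP tag) and kept under WR99210 selection. Growth inhibition measured as relative reduction of [3H]-hypoxanthine uptake, and data fitted by non-linear regression to relative growth velocity.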

Sequence of pvDHODH (A5K1N1 1-572): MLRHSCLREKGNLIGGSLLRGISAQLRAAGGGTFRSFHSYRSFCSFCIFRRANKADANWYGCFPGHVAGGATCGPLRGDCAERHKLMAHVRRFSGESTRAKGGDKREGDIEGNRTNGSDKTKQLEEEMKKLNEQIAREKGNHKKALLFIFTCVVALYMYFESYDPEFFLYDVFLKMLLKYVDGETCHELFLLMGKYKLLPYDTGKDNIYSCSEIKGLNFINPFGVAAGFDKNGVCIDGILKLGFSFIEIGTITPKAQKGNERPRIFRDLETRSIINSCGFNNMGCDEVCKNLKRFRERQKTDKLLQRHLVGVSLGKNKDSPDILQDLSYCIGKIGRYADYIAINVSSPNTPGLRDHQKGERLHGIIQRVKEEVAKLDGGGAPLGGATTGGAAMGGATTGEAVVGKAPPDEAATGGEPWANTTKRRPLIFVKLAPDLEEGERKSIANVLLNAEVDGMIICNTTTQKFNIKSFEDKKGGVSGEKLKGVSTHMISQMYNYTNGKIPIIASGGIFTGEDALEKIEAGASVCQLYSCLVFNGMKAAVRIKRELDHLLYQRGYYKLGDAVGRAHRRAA
Method for pfDHODH: Inhibitors of DHODH, as classified by the chromogen reduction assay, were also evaluated for activity using FeCy as an electron acceptor. A final concentration of 5-50 nM DHODH, 200 μM L-DHO and 100 μM FeCy in Buffer C was used in this assay. Both the reduction of FeCy and the formation of orotate was monitored at 420 nm (ε420=1 mM^−1 cm^−1) and 290 nm (ε280=2 mM^−1 cm^−1), respectively, noting that two molecules of FeCy are reduced for one molecule of L-DHO. As with the previous assays, the reaction was performed at 25° C. and initiated with the addition of enzyme.

Consider `CCCNC(=O)c1ccc(-n2c(C)nc3ccccc32)s1` [Compound 12, 5-(2-methyl-1H-benzo[d]imidazol-1-yl)-N-propylthiophene-2-carboxamide], for which the “cytotoxicity in dermal fibroblasts” value in data set [1] was “No adverse cytotoxicity”.
Take “5-(1H-indol-1-yl)-N-propylthiophene-2-carboxamide [Compound 7]”: the CC50 in data set [1] (four days exposure, Alamar Blue, read-out: Dermal Fibroblast LC50) is 50000 nM.
Consider `CCCNC(=O)c1ccc(-n2c(C)cc3ccccc32)s1` [Compound 1, 5-(2-methyl-1H-indol-1-yl)-N-propylthiophene-2-carboxamide], for which the half-maximal inhibitory concentration (IC50) against scDHODH was > 10000 nM; in the data set on P. falciparum HB3 it was 470 nM; with P. falciparum D10, 610 nM; at pbDHODH, 60 ± 7 nM; on pvDHODH, 420 ± 20 nM; in data set [2] (Plasmodium falciparum, D10, read-out: D10-scDHODH IC50), > 10000 nM. Further, the inhibition at 50 µM at pfDHODH came to 31%. Moreover, in data set [2] (dose-effect curves, FIG. 5), the “efficacy against D10-scDHODH strain compared to D10 parent strain” value is recorded as “significantly reduced”.

A word on the IC50: it is the midpoint of a concentration-inhibition curve. What is called inhibition is how much of the control response was suppressed.
